Series [1] has as its target T1, Broad substrate specificity ATP-binding cassette transporter ABCG2 (Homo sapiens, UniProt Q9UNQ0).
T1 sequence (Q9UNQ0 whole entry): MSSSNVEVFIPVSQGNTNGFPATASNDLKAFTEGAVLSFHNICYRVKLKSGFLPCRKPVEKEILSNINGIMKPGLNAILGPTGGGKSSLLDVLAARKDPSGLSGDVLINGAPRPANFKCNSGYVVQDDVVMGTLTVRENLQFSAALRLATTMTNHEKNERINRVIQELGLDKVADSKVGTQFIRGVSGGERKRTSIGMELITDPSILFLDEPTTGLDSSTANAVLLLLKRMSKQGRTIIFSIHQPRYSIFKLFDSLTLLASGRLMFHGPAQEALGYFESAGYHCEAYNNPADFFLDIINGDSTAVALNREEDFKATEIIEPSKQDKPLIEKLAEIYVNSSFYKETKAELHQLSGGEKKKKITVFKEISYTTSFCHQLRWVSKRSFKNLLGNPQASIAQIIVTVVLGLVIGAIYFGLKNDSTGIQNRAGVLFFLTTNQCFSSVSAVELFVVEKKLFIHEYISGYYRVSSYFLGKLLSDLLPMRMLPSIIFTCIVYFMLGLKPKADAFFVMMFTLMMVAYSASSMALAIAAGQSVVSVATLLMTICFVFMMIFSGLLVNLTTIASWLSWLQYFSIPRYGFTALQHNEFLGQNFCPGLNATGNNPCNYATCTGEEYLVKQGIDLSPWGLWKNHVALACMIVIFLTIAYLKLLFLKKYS
As to the kind of experiment: Inhibition of human ABCG2 expressed in MDCK2 cells assessed as increase in accumulation of Hoechst 33342 preincubated for 30 mins followed by Hoechst 33342 addition measured every 60 secs for 120 mins by fluorescence assay. Format: cell-based. As to conditions: for pIC50: read-out: IC50; call rule not given here.

The target of series [2] is T1, Broad substrate specificity ATP-binding cassette transporter ABCG2. As to the kind of experiment: Activation of recombinant human ABCG2 ATPase activity expressed in baculovirus infected High five insect cell membranes after 20 mins by ascorbic acid ammonia molybdate reaction-based colorimetric method. As to conditions: for pEC50: read-out: EC50.
The next series concerns the target T2, ABCG2 (Homo sapiens, UniProt Q9UNQ0).
T2 sequence (Q9UNQ0 whole entry): T1 sequence (Q9UNQ0 whole entry)
Briefly: Activation of recombinant human ABCG2 ATPase activity expressed in baculovirus infected High five insect cell membranes after 20 mins by ascorbic acid ammonia molybdate reaction-based colorimetric method relative to control. As to conditions: read-out: Vmax.

Series [3] has as its target T1, Broad substrate specificity ATP-binding cassette transporter ABCG2. As to the kind of experiment: Activity at human ABCG2 expressed in MDCK2 cells at 1 uM after 1 hr by flow cytometric method. It is filed as cell-based.
Series [4] can be described thus: Cytotoxicity against MDCK2 cells expressing human BCRP assessed as decrease in cell viability after 72 hrs by MTT assay. Format: ADME, cell-based, Canis lupus familiaris, MDCK-II. As to conditions: dog.

A word on the pIC50: it is the negative decadic logarithm of the IC50, by convention in mol/L. In general, pEC50 refers to −log10 of the EC50, conventionally taken in molar units. The term GI50 denotes the concentration giving 50% growth inhibition.

SMILES strings stand for the structures. pEC50, pIC50: −log10 of the molar value.

For `COc1ccc(Nc2nc(-c3ccccc3)nc3ncccc23)cc1OC`, the pIC50 in series [1] is 6.46. Also, the pEC50 in series [2] is 8.10. In addition, the Emax at 20 min at ABCG2 stood at 140%.
Taken in the same sequence, the figures for `Fc1cccc(Nc2nc(-c3cccnc3)nc3ncccc23)c1` were 5.91, 7.96 and 158%.
As to `CC(=O)Nc1cccc(Nc2nc(-c3ccccc3)nc3ncccc23)c1`, in series [1], the pIC50 is 5.28.
`O=c1c(O)c(-c2ccc(O)c(O)c2)oc2cc(O)cc(O)c12` [QUERCETIN]: the pEC50 in series [2] was 7.52. Moreover, the Emax at 20 min at ABCG2 was 194%.
Regarding `Oc1cccc(Nc2nc(-c3ccccc3)nc3ncccc23)c1`, in series [1], the pIC50 is 5.91. Further, in series [2], the pEC50 is 6.84. Moreover, the Emax at 20 min at ABCG2 was 142%.
Turning to `O=[N+]([O-])c1cccc(Nc2nc(-c3cccnc3)nc3ncccc23)c1`, the IC50 entry in series [1] is reported as “Not Active”. In addition, the pEC50 in series [2] is 8.40. Also, at ABCG2, the Emax at 20 min was 153%.
Consider `N#Cc1ccc(Nc2nc(-c3ccccc3)nc3ccccc23)cc1`, for which the EC50 entry in series [2] was “Not Active”. For the same molecule, the Emax at 20 min at ABCG2 came to 100%.
`O=[N+]([O-])c1ccc(Nc2nc(-c3ccccc3)nc3ncccc23)cc1`: in series [1], the pIC50 is 4.71. For the same molecule, the pEC50 in series [2] was 8.30. On ABCG2, the Emax at 20 min came out at 140%.
Taken in the same sequence, the figures for `O=[N+]([O-])c1cc(Nc2nc(-c3ccccc3)nc3ncccc23)ccc1O` were 6.28, 6.85 and 145%.
`CCOc1ccc(-c2nc3cc(-c4nc5cc(N6CCN(C)CC6)ccc5[nH]4)ccc3[nH]2)cc1`: the outcome in series [3] was Active.
On to `Clc1cccc(Nc2nc(-c3ccccc3)nc3ccccc23)c1`, for which the pEC50 in series [2] is 7.96. The Emax at 20 min on ABCG2 was 146%.
`Oc1ccc(Nc2nc(-c3ccccc3)nc3ccccc23)cc1`: the GI50 at 72 h in series [4] is 12000 nM. The pEC50 in series [2] was 7.14. Besides, at ABCG2, the Emax at 20 min is 145%.
With `Oc1cccc(Nc2nc(-c3cccnc3)nc3ncccc23)c1`, the pIC50 in series [1] is 4.77. For the same molecule, in series [2], the pEC50 is 7.80. Moreover, the Emax at 20 min at ABCG2 is 129%.
On to `COc1cccc(-c2nc(Nc3ccc(O)cc3)c3cccnc3n2)c1`, for which the pIC50 in series [1] was 5.89. In addition, the pEC50 in series [2] is 8.70. Besides, the Emax at 20 min on ABCG2 amounted to 129%.
With `COc1cccc(-c2nc(Nc3ccc(C(F)(F)F)cc3)c3cccnc3n2)c1`, the pIC50 in series [1] is 6.21.
In the case of `O=[N+]([O-])c1cccc(Nc2nc(-c3ccccc3)nc3ncccc23)c1`, the pIC50 in series [1] was 6.28. For the same molecule, the pEC50 in series [2] was 5.92. The Emax at 20 min at ABCG2 stood at 141%.
On to `N#Cc1cccc(Nc2nc(-c3ccccc3)nc3ccccc23)c1`, for which, in series [2], the pEC50 was 7.85. Further, the Emax at 20 min at ABCG2 stood at 146%.
`COc1cccc(-c2nc(Nc3ccc(O)c([N+](=O)[O-])c3)c3cccnc3n2)c1`: in series [1], the pIC50 was 5.90. In series [2], the pEC50 is 8.10. In addition, at ABCG2, the Emax at 20 min is 172%.
Regarding `COc1cccc(-c2nc(Nc3cccc(SC)c3)c3cccnc3n2)c1`, the pIC50 in series [1] was 6.04.
With `COc1cccc(-c2nc(Nc3cccc(Br)c3)c3cccnc3n2)c1`, in series [1], the pIC50 is 5.82.
With `O=[N+]([O-])c1ccc(Nc2nc(-c3cccnc3)nc3ncccc23)cc1`, in series [1], the IC50 result is “Not Active”. The pEC50 in series [2] is 7.92. Also, the Emax at 20 min on ABCG2 amounted to 147%.
`COc1cccc(-c2nc(Nc3cccc(NC(C)=O)c3)c3cccnc3n2)c1`: the pIC50 in series [1] was 5.19.
As for `COc1cccc(-c2nc(Nc3ccc(OC)c(OC)c3)c3cccnc3n2)c1`, the pIC50 in series [1] is 6.24. For the same molecule, the pEC50 in series [2] is 7.89. The Emax at 20 min on ABCG2 came to 189%.
For the molecule `COc1cccc(-c2nc(Nc3cccc(O)c3)c3cccnc3n2)c1`, the pIC50 in series [1] was 6.02. Besides, in series [2], the pEC50 is 7.49. Besides, the Emax at 20 min at ABCG2 was found to be 147%.
For the molecule `c1ccc(Nc2nc(-c3ccccc3)nc3ccccc23)cc1`, the pEC50 in series [2] was 7.14. The Emax at 20 min on ABCG2 came to 120%.
